According to patent US8367684B2, “Derivatives of 4-(N-azacycloalkyl) anilides as potassium channel modulators” (Valeant Pharmaceuticals International, priority 2007, dated 2013):

The compounds below were run on potassium ion channels (assay: Rubidium (Rb+) efflux assay in NGF-differentiated PC-12 cells, potassium channel modulation). Details: depolarization buffer with 15 mM KCl, 10 min at room temperature, read-out: ACTIVITY (EC50, compound's concentration for 50% of maximal Rb+ efflux).
Format: cell-based
Protocol: Compounds of this invention formula were evaluated as potassium channel modulators by measuring rhubidium release in the following assay.
Methods: PC-12 cells were grown at 37° C. and 5% CO2 in DMEM/F12 Medium supplemented with 10% horse serum, 5% fetal bovine serum, 2 mM glutamine, 100 U/ml penicillin, 100 U/ml streptomycin. They were plated in poly-D-lysine-coated 96-well cell culture microplates at a density of 40,000 cells/well and differentiated with 100 ng/ml NGF-7s for 2-5 days. For the assay, the medium was aspirated and the cells were washed once with 0.2 ml in wash buffer (25 mM Hepes, pH 7.4, 150 mM NaCl, 1 mM MgCl2, 0.8 mM NaH2PO4, 2 mM CaCl2). The cells were then loaded with 0.2 ml Rb^+ loading buffer (wash buffer plus 5.4 mM […], 5 mM glucose) and incubated at 37° C. for 2 h. Attached cells were quickly washed three times with buffer (same as Rb^+ loading buffer, but containing 5.4 mM KCl instead of RbCl) to remove extracellular Rb^+. Immediately following the wash, 0.2 ml of depolarization buffer (wash buffer plus 15 mM KCl) with or without compounds was added to the cells to activate efflux of potassium ion channels. After incubation for 10 min at room temperature, the supernatant was carefully removed and collected. Cells were lysed by the addition of 0.2 ml of lysis buffer (depolarization buffer plus 0.1% Triton X-100) and the cell lysates were also collected. If collected samples were not immediately analyzed for Rb^+ contents by atomic absorption spectroscopy (see below), they were stored at 4° C. without any negative effects on subsequent Rb^+ analysis.
The concentration of Rb^+ in the supernatants (Rb^+Sup) and cell lysates (Rb^+Lys) was quantified using an ICR8000 flame atomic absorption spectrometer (Aurora Biomed Inc., Vancouver, B.C.) under conditions defined by the manufacturer. One 0.05 ml samples were processed automatically from microtiter plates by dilution with an equal volume of Rb^+ sample analysis buffer and injection into an air-acetylene flame. The amount of Rb^+ in the sample was measured by absorption at 780 nm using a hollow cathode lamp as light source and a PMT detector. A calibration curve covering the range 0-5 mg/L Rb^+ in sample analysis buffer was generated with each set of plates. The percent Rb^+ efflux (F) was defined by F=[Rb^+sup/(Rb^+sup+Rb^+Lys)]×100%.
The effect (E) of a compound was defined by: E=[(Fc−Fb)/(Fs−Fb)]×100% where the Fc is the efflux in the presence of compound in depolarization buffer, Fb is the efflux in basal buffer, and Fs is the efflux in depolarization buffer, and Fc is the efflux in the presence of compound in depolarization buffer. The effect (E) and compound concentration relationship was plotted to calculate an EC50 value, a compound's concentration for 50% of maximal Rb^+ efflux. Legend: A: EC50=1 nM-50 nM; B: EC50=50 nM-100 nM; C: EC50=100-200 nM.

`Cc1cc(N2CCc3ccccc3C2)nc(C)c1NC(=O)CC(C)(C)C` and `Cc1cc(N2CCc3cc(F)ccc3C2)nc(C)c1NC(=O)CC(C)(C)C` fall in the same range of EC50: 1 to 50 nM for the first, 1 to 50 nM for the second.

Compared with `Cc1cc(N2CCc3cc(C(F)(F)F)ccc3C2)nc(C)c1NC(=O)CC(C)(C)C`, `Cc1nc(N2CCc3ccccc3C2)nc(C)c1NC(=O)CC(C)(C)C` is higher in EC50: 1 to 50 nM for the first, 50 to 100 nM for the second.

`COc1nc(N2CCc3ccccc3C2)nc(OC)c1NC(=O)CC(C)(C)C` and `COc1nc(N2CCc3cc(F)ccc3C2)nc(OC)c1NC(=O)CC(C)(C)C` fall in the same range of EC50: 1 to 50 nM for the first, 1 to 50 nM for the second.
